Data from patent EP0013144A1, “Substituted diphenylamine derivatives, compositions and herbicidal uses thereof, and processes for their preparation” (ICI AUSTRALIA LIMITED, priority 1978, dated 1980).

Key:
Format in all cases: in vivo
Rape [1] = assay: Post-emergence herbicidal test, young pot plants (Example 33); settings: 2.0 kg/ha, after 14 days
Method: (§1) The compounds were formulated for test by mixing an appropriate amount with 5 ml of an emulsion prepared by diluting 160 ml of a solution containing 21.S g per litre of "Span" 80 and 78.2 g per litre of "Tween" 20 in methylcyclohexanone to 500 ml with water. "Span" 80 is a Trade Mark for a surface-active agent comprising sorbitan monolaurate. "Tween" 20 is a Trade Mark for a surface-active agent comprising a condensate of sorbitan monolaurate with 20 molar proportions of ethylene oxide. Each 5 ml emulsion containing a test compound was'then diluted to 40 ml with water and sprayed on to young pot plants (post-emergence test) of the species named in Table 5 below. Damage to test plants was assessed after 14 days on a scale of 0 to 5 where 0 is 0 to 20% damage and 5 is complete kill. In a test for pre-emergence herbicidal activity, seeds of the test plants were sown in a shallow slit formed in the surface of soil in fibre trays. The surface was then levelled and sprayed, and fresh soil then spread thinly over the sprayed surface. Assessment of herbicidal damage was carried out after 21 days using the same scale of 0 to 5 as the post-emergence test. In both cases the degree of herbicidal damage was assessed by comparison with untreated control plants. A dash (-) means that no experiment was carried out.

Chenopodium album [2] = assay: as above; settings: 2.0 kg/ha, after 14 days
Method: as §1

Amaranthus retroflexus [3] = assay: as above; settings: 2.0 kg/ha, after 14 days
Method: as §1

Sugar beet [4] = assay: as above; settings: 2.0 kg/ha, after 14 days
Method: as §1

Cotton [5] = assay: as above; settings: 2.0 kg/ha, after 14 days
Method: as §1

Soy bean [6] = assay: as above; settings: 2.0 kg/ha, after 14 days
Method: as §1

Ipomea purpurea [7] = assay: as above; settings: 2.0 kg/ha, after 14 days
Method: as §1

Polygonum aviculare [8] = assay: as above; settings: 2.0 kg/ha, after 14 days
Method: as §1

Maize [9] = assay: Pre-emergence herbicidal test, fibre trays (Example 33); set-up: key: 0 = 0-20% damage, 5 = complete kill, vs untreated control; settings: 2.0 kg/ha, after 21 days
Method: as §1

Winter wheat [10] = assay: Post-emergence herbicidal test, young pot plants (Example 33); set-up: key: 0 = 0-20% damage, 5 = complete kill, vs untreated control; settings: 2.0 kg/ha, after 14 days
Method: as §1

Rice [11] = assay: as above; settings: 2.0 kg/ha, after 14 days
Method: as §1

Maize [12] = assay: as above; settings: 2.0 kg/ha, after 14 days
Method: as §1

Rice [13] = assay: Pre-emergence herbicidal test, fibre trays (Example 33); settings: 2.0 kg/ha, after 21 days
Method: as §1

Rape [14] = assay: as above; settings: 2.0 kg/ha, after 21 days
Method: as §1

Chenopodium album [15] = assay: as above; settings: 2.0 kg/ha, after 21 days
Method: as §1

Amaranthus retroflexus [16] = assay: as above; settings: 2.0 kg/ha, after 21 days
Method: as §1

Winter wheat [17] = assay: as above; settings: 2.0 kg/ha, after 21 days
Method: as §1

Senecio vulgaris [18] = assay: as above; settings: 2.0 kg/ha, after 21 days
Method: as §1

Sugar beet [19] = assay: as above; settings: 2.0 kg/ha, after 21 days
Method: as §1

Cotton [20] = assay: as above; settings: 2.0 kg/ha, after 21 days
Method: as §1

Soy bean [21] = assay: as above; settings: 2.0 kg/ha, after 21 days
Method: as §1

Ipomea purpurea [22] = assay: as above; settings: 2.0 kg/ha, after 21 days
Method: as §1

Polygonum aviculare [23] = assay: as above; settings: 2.0 kg/ha, after 21 days
Method: as §1

Senecio vulgaris [24] = assay: Post-emergence herbicidal test, young pot plants (Example 33); settings: 2.0 kg/ha, after 14 days
Method: as §1

Japanese millet = assay: Post-emergence herbicidal activity (Example 32); settings: 5 kg/ha, 3 weeks after spraying
Method: (§2) Concentrated formulations of the compounds of the invention were prepared by: • a) in the case of oils and waxy solids, dissolving the compound in toluene containing 7% v/v "Teric" N13 ("Teric" is a Trade MarK and "Teric" N13, a product of ethoxylation of nonylphenol, is available from ICI Australia Limited) and 3% v/v "Kemmat" SC15B ("Kemmat" is a Trade Mark and "Kemmat" SC15B is a formulation of calcium dodecylbenzene sulfonate); or • b) in the case of crystalline solids, adding 5 parts by weight of the compound and 1 part by weight of . ''Dyapol" PT ("Dyapol" is a Trade Mark and "Dyapol" PT is an anionic suspending agent) to 94 parts by weight of an aqueous solution containing 0.25% v/v of "Teric" N8 (a product of ethoxylation of nonylphenol) and ball-milling the mixture to produce a stable suspension. The emulsifiable concentrates and suspensions were then diluted with water to give an aqueous composition of the required concentration suitable for use in the evaluation of the pre-emergence and post-emergence herbicidal activity of the compounds of the invention.
(§3) The post-emergent herbicidal activity of the compounds of the invention formulated as described in Example 30 was assessed by the following procedure.
(§4) The seeds of the test species were sown in rows 2 cm deep in soil contained in seed boxes. The monocotyledonous plants and the dicotyledonous plants were sown in separate seed boxes in duplicate. The four seed boxes were placed in a glasshouse, lightly watered with an overhead spray to initiate germination and then sub-irrigated as required for optimum plant growth. After the plants had grown to a height of about 10 to 12.5 cm one box of each of the monocotyledonous plants and the dicotyledonous plants was removed from the glasshouse and sprayed with the required quantity of a composition of the invention. After spraying the boxes were returned to the glasshouse for further 3 weeks and the effects of the treatment was visually assessed by comparison with the untreated controls. The results are presented in Table 4 where the damage to plants is rated on a scale of from 0 to 3 where 0 represents 0 to 25% damage, 3 represents 75 to 99% kill and 3+ represents 100% kill. A dash (-) means that no experiment was carried out.

Sunflower = assay: Post-emergence herbicidal activity (Example 32); settings: 5 kg/ha, 3 weeks after spraying
Method: as §2, §3, §4

Ipomea = assay: Post-emergence herbicidal activity (Example 32); settings: 5 kg/ha, 3 weeks after spraying
Method: as §2, §3, §4

Mustard = assay: Post-emergence herbicidal activity (Example 32); settings: 5 kg/ha, 3 weeks after spraying
Method: as §2, §3, §4

Ryegrass = assay: Post-emergence herbicidal activity (Example 32); settings: 5 kg/ha, 3 weeks after spraying
Method: as §2, §3, §4

Wild Oats = assay: Post-emergence herbicidal activity (Example 32); settings: 5 kg/ha, 3 weeks after spraying
Method: as §2, §3, §4

Wheat = assay: Post-emergence herbicidal activity (Example 32); set-up: key: 0-3 scale: 0 = 0-25% damage, 3 = 75-99% kill, 3+ = 100% kill; settings: 5 kg/ha, 3 weeks after spraying
Method: as §2, §3, §4

Compound | damage to test plants, Rp (Rape [1]) | damage to test plants, Sb (Sugar beet [4]) | damage to test plants, Ct (Cotton [5]) | damage to test plants, Sy (Soy bean [6]) | damage to test plants, Ip (Ipomea purpurea [7]) | herbicidal damage, Mz (Maize [9]) | damage to test plants, Ww (Winter wheat [10]) | damage to test plants, Rc (Rice [11]) | damage to test plants, Mz (Maize [12]) | herbicidal damage, Rc (Rice [13]) | herbicidal damage, Rp (Rape [14]) | herbicidal damage, Am (Amaranthus retroflexus [16]) | herbicidal damage, Ww (Winter wheat [17]) | herbicidal damage, Sn (Senecio vulgaris [18]) | herbicidal damage, Sb (Sugar beet [19]) | herbicidal damage, Ct (Cotton [20]) | herbicidal damage, Sy (Soy bean [21]) | herbicidal damage, Ip (Ipomea purpurea [22]) | other results
COC(=O)C(C)Oc1ccc(Nc2ccc(C(F)(F)F)cc2[N+](=O)[O-])cc1Cl (stereo not shown) [Compound 116] | 0 (0 is 0 to 20% damage) | 3 | 0 (0 is 0 to 20% damage) | 0 (0 is 0 to 20% damage) | 0 (0 is 0 to 20% damage) | 3 | 4 | 4 | 4 | 4 | 0 (0 is 0 to 20% damage) | 0 (0 is 0 to 20% damage) | 4 | 0 (0 is 0 to 20% damage) | 0 (0 is 0 to 20% damage) | 0 (0 is 0 to 20% damage) | 0 (0 is 0 to 20% damage) | 0 (0 is 0 to 20% damage) | damage to test plants, Ca (Chenopodium album [2]): 0 (0 is 0 to 20% damage); damage to test plants, Am (Amaranthus retroflexus [3]): 0 (0 is 0 to 20% damage); damage to test plants, Pi (Polygonum aviculare [8]): 0 (0 is 0 to 20% damage); herbicidal damage, Ca (Chenopodium album [15]): 0 (0 is 0 to 20% damage); herbicidal damage, Pi (Polygonum aviculare [23]): 0 (0 is 0 to 20% damage)
COC(=O)C(C)Oc1ccc(N(C)c2ccc([N+](=O)[O-])cc2[N+](=O)[O-])cc1 (stereo not shown) [Compound 18] | 0 (0 is 0 to 20% damage) | 1 | 0 (0 is 0 to 20% damage) | 0 (0 is 0 to 20% damage) | 0 (0 is 0 to 20% damage) | 1 | 0 (0 is 0 to 20% damage) | 0 (0 is 0 to 20% damage) | 2 | 1 | 1 | 0 (0 is 0 to 20% damage) | 0 (0 is 0 to 20% damage) | 0 (0 is 0 to 20% damage) | 0 (0 is 0 to 20% damage) | 0 (0 is 0 to 20% damage) | 0 (0 is 0 to 20% damage) | 0 (0 is 0 to 20% damage) | damage to test plants, Sn (Senecio vulgaris [24]): 0 (0 is 0 to 20% damage); damage to plants, Jm (Japanese millet): 3+ (3+ represents 100% kill); damage to plants, Sf (Sunflower): 0 (0 represents 0 to 25% damage); damage to plants, Ip (Ipomea): 0 (0 represents 0 to 25% damage); damage to plants, Ms (Mustard): 0 (0 represents 0 to 25% damage); damage to plants, Rg (Ryegrass): 3+ (3+ represents 100% kill); damage to plants, Ot (Wild Oats): 3 (3 represents 75 to 99% kill); damage to plants, Wh (Wheat): 2
